According to patent publication US6649615B2, “Method for inhibiting fibrogenesis” (Institute National de la Sante et de la Recherche Medicale …, priority 2002, dated 2003):
“And” between values parts separate entries of the source, which are not always exact repeats. Equal entries are not always repeated. “Also recorded” adds a separate entry of the source.

Tests used:
[1] = system: liver norepinephrin stores; experiment: Liver catecholamine (norepinephrin) content by HPLC with electrochemical detection; format: in vivo, rat; settings: for Norepinephrin content in liver: 2 weeks, mean ± 1 SD; for decrease in the liver norepinephrin content: OHDA 2 weeks
Protocol: (§1) Sympathetic chemical denervation was performed with OHDA (Sigma). OHDA was freshly prepared in saline containing 0.4% (w/v) ascorbic acid (Sigma). OHDA was administered intraperitoneally, twice a week on 2 consecutive days (Monday and Tuesday) at the dose of 25 mg/kg body weight. The first injection was given 4 to 6 hours before the first administration of CCl4. Control animals for OHDA received only the solvent.
(§2) Thus, 4 groups including each 6 animals could be distinguished. Group I: olive oil and saline alone; group II: olive oil and OHDA alone; group III: CCl4 with saline; group IV: CCl4 with OHDA. These animals were treated for 2 weeks. In another series of experiments, animals were similarly treated for 6 weeks. In that case, both control groups included only 3 animals.
Extraction was performed on liver homogenates (10% w/v, in 0.05 M ice-cold Tris-HCl buffer at pH 7.4) according to the method of Smedes et al. using […] as internal standard (Smedes et al., 1982). Extracts were analyzed by HPLC with electrochemical detection.

[2] = Vital parameters and liver function tests after 2 weeks of treatment; format: in vivo, rat; settings: for Bilirubin / ALAT / ASAT / Alkaline phosphatase / LW/BW ratio (X100) / Liver weight / Body weight: 2 weeks; for Bilirubin / ALAT / ASAT / Alkaline phosphatase: serum
Protocol: (§3) All experiments were carried out using accepted ethical guidelines. Male Wistar rats (Charles River, St Aubin-les-Elbeuf, France) weighing 200-250 g were used in this study. The animals had free access to food and drinking water. Fibrosis was induced by giving CCl4 (Sigma, St Quentin-Fallavier, France) mixed with olive oil (1vol: 5vol.) at 0.375 ml/kg body weight by gavage, three times a week, on Monday, Wednesday and Friday. Control animals for CCl4 received only olive oil.
as §1, §2
Serum samples were also collected.

[3] = system: CCl4-induced hepatocyte necrosis; experiment: Acute toxicity of CCl4: liver function tests and area of necrosis
Protocol: Routine liver function blood tests (bilirubin, alkaline phosphatase and transaminases) were performed on an automated analyzer.
Thus, groups of animals treated with 2 administrations of CCl4 with or without 2 injections of OHDA were sacrificed 24 hours after the second CCl4 treatment and evaluated for acute toxicity of CCl4 by serum tests and measurement of the area of necrosis on liver sections.
The percentage of necrosis area was determined on hematoxylin and eosin stained sections by image analysis.

type I collagen mRNA = experiment: Liver type I collagen transcripts (quantitative RT-PCR, in situ hybridization); format: in vivo, rat; settings: 6 weeks
Protocol: In situ hybridization was performed on frozen sections according to a protocol described earlier, using [α^33P]UTP labeled riboprobes (Faouzi et al., 1999). The probe used was a 900 bp fragment of the rat α2(I) collagen cDNA, (Genovese et aL, 1984). The cDNA was subcloned into the pGEM5Z f(+) vector. Antisense and sense probes were generated by in vitro transcription. Their size was reduced to ˜250 nt by alkaline hydrolysis.
Total RNA was prepared from liver samples by the method of Chomczynski and Sacchi (1987), modified as described by Puissant and Houdebine (1990).
Type I collagen specific transcripts were quantified by a technique of quantitative RT-PCR, that has previously been described in detail (Bieche et al., 2000). Each sample was normalized on the basis of its expression of the RPLPO gene (also known as 36B4, encoding human acidic ribosomal phosphoprotein P0).

[4] = system: CCl4-induced liver fibrosis; experiment: CCl4-induced liver fibrosis in rats, fibrosis area by Picro Sirius red image analysis; format: in vivo, rat; settings: for area of fibrosis (% of field area): control 0.63±0.06%
Protocol: as §3, §1, §2
Finally, other animals were treated with the specific α1-adrenergic receptor antagonist prazosin (Sigma), given in drinking water daily at a dose of 50 mg/l during 2 weeks. Group V animals received CCl4 alone, while group VI received CCl4 with prazosin. Both groups included 6 animals.
At the designated time points, the animals were sacrificed. Liver samples were taken from several lobes and either snap frozen in liquid nitrogen, cryopreserved in OCT compound (Sakura, Torrance, Calif.) and snap-frozen in liquid nitrogen-cooled isopentane, or fixed in buffered formalin.
This was done on formalin-fixed, paraffin-embedded sections stained with Picro Sirius red, using image analysis. All samples from a series of experiments were stained simultaneously. Quantitative data were obtained using a computerized image analysis system (Biocom 500, Les Ulis, France) including a personal computer (DESK PRO, Compaq, Houston, Tex.), a CCD video camera (Sony, Japan) and a Zeiss microscope (Jena, Germany). Sampling corresponded to 3 sections from 3 different lobes. The analysis was performed on an average of 50 fields per section using the ×4 objective. The whole surface of the sections was used for analysis with the exception of large centrolobular veins (diameter ≧150 μm) and large portal tracts. Fibrosis deposition was expressed as a percentage of stained areas on the total measured area.
Interassay variation was calculated in preliminary experiments and found to be 1.4%. When the percentage of reduction in areas of fibrosis consecutive to treatments was calculated, control values were first substracted.

TIMP-1 mRNA = experiment: Liver TIMP-1 mRNA by Northern blot (TIMP-1/GAPDH ratio); format: in vivo, rat
Protocol: […] The blot was then stripped and rehybridized with a rat GAPDH (glyceraldehyde-3-phosphate dehydrogenase) probe.
[…] of total RNA extracted from rat liver was analyzed by Northern blot. RNAs were separated on a 0.8% agarose gel containing ethidium bromide in MOPS buffer. Running buffer and gel contained 0.2 M formaldehyde. The RNAs were transferred onto a positively charged nylon membrane (Amersham, Orsay, France) by downward capillary transfer in running buffer. Examination of the stained membrane under UV light was used to confirm the quality of loading and transfer. A rat TIMP-1 cDNA probe was labeled with [α^32P]dCTP by random priming using the Ready-to-go kit from Roche (Meylan, France). Hybridization was performed using the Ultrahyb solution (Ambion, Austin, Tex.). The blots were washed in stringent conditions (0.1×SSC, 0.1% SDS at 65° C.). To further confirm the loading and transfer accuracy, blots were rehybridized with a rat GAPDH cDNA probe (Fort et al., 1985). The signals were quantified with the Kodak 1 D Image Analysis Software (Eastman Kodak Company, Rochester, N.Y.). Results are presented as TIMP-1/GAPDH ratios.

SMILES: NCCc1cc(O)c(O)cc1O [OHDA, 6-hydroxydopamine]
- Norepinephrin content in liver ([1]; CCl4 + OHDA (group IV), CCl4 alone group III 29.1 ± 10.6): 3.6 ± 1.5 ng/g of wet liver tissue
- decrease in the liver norepinephrin content ([1]; CCl4-treated animals): 87.6%
- Norepinephrin content in liver ([1]; OHDA alone (group II), 25 mg/kg i.p. twice a week, saline group I 47.6 ± 9.9): 6.0 ± 3.2 ng/g of wet liver tissue
- decrease in the liver norepinephrin content ([1]; non CCl4-treated animals): 87.4%
- Bilirubin ([2]; CCl4 with OHDA (group IV), CCl4 alone 3.2 ± 0.7): 5.0 ± 1.4 μM.I^−1
- ALAT ([2]; CCl4 with OHDA (group IV), CCl4 alone 130 ± 98): 97 ± 37 IU.I^−1
- ASAT ([2]; CCl4 with OHDA (group IV), CCl4 alone 173 ± 82): 137 ± 29 IU.I^−1
- Alkaline phosphatase ([2]; CCl4 with OHDA (group IV), CCl4 alone 276 ± 53): 225 ± 58 IU.I^−1
- LW/BW ratio (X100) ([2]; CCl4 with OHDA (group IV), CCl4 alone 4.6 ± 0.7): 4.1 ± 0.6
- Liver weight ([2]; CCl4 with OHDA (group IV), CCl4 alone 13.7 ± 1.7): 12.5 ± 1.0 g
- Body weight ([2]; CCl4 with OHDA (group IV), CCl4 alone 298 ± 12): 293 ± 6 g
- gross toxic effects of prolonged treatment ([2]; OHDA alone (group II)): No gross toxic effects
- histologic aspect of the livers ([2]; OHDA alone (group II)): strictly normal
- Bilirubin ([2]; OHDA alone (group II), saline 4.5 ± 1.4): 2.3 ± 0.5 μM.I^−1
- ALAT ([2]; OHDA alone (group II), saline 43 ± 4): 50 ± 6 IU.I^−1
- ASAT ([2]; OHDA alone (group II), saline 120 ± 9): 94 ± 18 IU.I^−1
- Alkaline phosphatase ([2]; OHDA alone (group II), saline 178 ± 48): 274 ± 46 IU.I^−1
- LW/BW ratio (X100) ([2]; OHDA alone (group II), saline 3.7 ± 0.2): 4.4 ± 0.2
- Liver weight ([2]; OHDA alone (group II), saline 12.9 ± 1.0): 16.0 ± 1.1 g
- Body weight ([2]; OHDA alone (group II), saline 344 ± 17): 365 ± 14 g
- Necrosis area ([3]; CCl4 + OHDA, 96 hs, hematoxylin and eosin sections, CCl4 alone 4.6 ± 2.3): 3.3 ± 1.0%
- ALAT ([3]; CCl4 + OHDA, 96 hs, CCl4 alone 269 ± 117): 221 ± 71 IU.I^−1
- Alkaline phosphatase ([3]; CCl4 + OHDA, 96 hs, CCl4 alone 314 ± 111): 240 ± 117 IU.I^−1
- ASAT ([3]; CCl4 + OHDA, 96 hs, CCl4 alone 452 ± 152): 342 ± 62 IU.I^−1
- effect on the acute toxicity of CCl4 (biological tests and necrosis area) ([3]; co-treatment with CCl4 vs CCl4 alone): no statistically significant difference
- type I collagen mRNA level (quantitative RT-PCR) (type I collagen mRNA; CCl4 together with OHDA, CCl4 alone 477.2±91.0, control 16.0±5.9): 364.5±68.7 arbitrary units
- decrease in type I collagen mRNA level (type I collagen mRNA; CCl4 with OHDA vs CCl4 only): 24%
- area of fibrosis (% of field area) ([4]; CCl4 with OHDA (group IV), 2 weeks, CCl4 alone 2.86±0.78%): 1.54±0.29%
- area of fibrosis ([4]; CCl4 with OHDA, 6 weeks, CCl4 alone 18.82±1.79%): 12.38±1.89%
- area of fibrosis (% of field area) ([4]; OHDA alone (group II), 2 weeks): 0.61±0.08%
- area of fibrosis ([4]; OHDA alone, 6 weeks): 0.47±0.03%
- reduction in the area of fibrosis ([4]; OHDA with CCl4 vs CCl4 alone, 2 weeks, control values subtracted): 60% and 60.2%
- decrease of fibrosis area ([4]; OHDA with CCl4 vs CCl4 alone, 6 weeks): 36%
- effect on CCl4-induced increase of liver TIMP-1 mRNA (TIMP-1/GAPDH ratio) (TIMP-1 mRNA; CCl4 with OHDA (group IV), 2 weeks): abrogated; also recorded: normalization of the TIMP-1/GAPDH ratio back to control values
- effect on CCl4-induced increase of liver TIMP-1 mRNA (TIMP-1 mRNA; CCl4 with OHDA, 6 weeks): greatly reduced
- reduction in the TIMP-1/GAPDH ratio (TIMP-1 mRNA; CCl4 with OHDA, 6 weeks, all animals, not statistically significant): 45%
- reduction in the TIMP-1/GAPDH ratio (TIMP-1 mRNA; CCl4 with OHDA, 6 weeks, one animal with very high value removed, p=0.05): 57%
